The values that follow are results of earlier work, collected in patent US20040089561A1, “Method and package for storing a pressurized container containing a drug” (priority 1999, published 2004).

For the data set the following is noted: water in the propellant.

SMILES strings stand for the structures.

`FC(F)(Cl)C(F)(F)Cl` [CFC 114]: the maximum water solubility entry is recorded as “about 130 ppm”.

Consider `FC(F)(Cl)Cl` [CFC 12], for which the maximum water solubility entry is given as “about 130 ppm”. In the case of `FCC(F)(F)F` [HFC 134a], the maximum water solubility entry is “about 2200 ppm”.
